From patent US7442802B2, “Cyclooxygenase-2 selective inhibitors, compositions and methods of use” (NitroMed, Inc., priority 2002, dated 2008)

Tests used:
COX-2 = target: T1, COX-2 (Homo sapiens, UniProt P35354); experiment: Human COX-2 enzyme activity in human whole blood (LPS-induced, thromboxane B2 EIA); assay type: cell-based; conditions: human whole blood, LPS induction; for inhibition at 1 µM: read-out: COX-2 Inhibition (% at 1 μM); for inhibition at 10 µM: read-out: COX-2 Inhibition (% at 10 μM)
T1 construct: To induce COX-2, lipopolysaccharide (LPS) from E. coli; endogenous in cells; host or cells: heparinised human whole blood from donors, with COX-2 induced by E. coli LPS
T1 sequence (P35354 18-604): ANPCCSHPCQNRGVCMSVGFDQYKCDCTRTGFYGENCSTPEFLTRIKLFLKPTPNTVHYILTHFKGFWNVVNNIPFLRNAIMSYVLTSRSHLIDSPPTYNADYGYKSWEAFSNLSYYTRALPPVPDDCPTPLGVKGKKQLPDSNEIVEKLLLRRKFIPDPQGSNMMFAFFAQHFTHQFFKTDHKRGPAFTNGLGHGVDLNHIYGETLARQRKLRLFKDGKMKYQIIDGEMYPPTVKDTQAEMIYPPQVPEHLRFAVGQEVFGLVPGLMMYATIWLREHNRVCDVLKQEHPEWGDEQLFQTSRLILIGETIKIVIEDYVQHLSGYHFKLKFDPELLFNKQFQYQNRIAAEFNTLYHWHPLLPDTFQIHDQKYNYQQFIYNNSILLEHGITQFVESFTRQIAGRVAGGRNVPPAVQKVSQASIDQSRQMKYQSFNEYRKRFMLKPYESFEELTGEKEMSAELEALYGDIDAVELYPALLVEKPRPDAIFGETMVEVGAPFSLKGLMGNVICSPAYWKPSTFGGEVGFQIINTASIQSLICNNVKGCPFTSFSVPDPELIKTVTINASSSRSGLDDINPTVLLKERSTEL
Procedure: (§1) The blood was transported to the laboratory on ice packs and used within 1.5 hours of collection. Upon receipt in the laboratory, the blood was allowed to come to room temperature for 15 minutes prior to distribution in 1 mL aliquots per well of 24 well tissue culture plates. […] Test compounds were dissolved in DMSO, at 1000 fold the final desired concentration, and further diluted, as indicated, in DMSO. One μL of each dilution of the test compound was added per well, in duplicate wells; wells not receiving test compound (e.g., basal, background or control wells) received 1 μL DMSO. […] Louis, Mo., Catalogue No. […] Louis, Mo., Catalogue No. […] (Again, basal, background or control wells not stimulated with A23187 received 1 μL of DMSO.) At 5 hours after the addition of the test compound, all incubations were terminated by placement on ice and the addition of 2 mM EGTA (100 μL of 20 mM EGTA, tetrasodium, in PBS (phosphate buffered saline) without Ca^++ and Mg^++, pH 7.2)). […] One hundred μL of plasma was removed from each blood sample and added to 1 mL of methanol in new 15 mL polypropylene centrifuge tubes, vortexed, and stored overnight at -20° C. […] The samples were assayed for thromboxane B2 using EIA kits supplied by Cayman Chemical Co. […] The % inhibition for COX-1 and COX-2 enzyme activity in human whole blood by the test compounds, at the indicated concentrations, are given in Table 1.

COX-1 = target: T2, COX-1 (Homo sapiens, UniProt P23219); experiment: Human COX-1 enzyme activity in human whole blood (A23187-stimulated, thromboxane B2 EIA); assay type: cell-based; conditions: 100 μM, human whole blood, A23187 stimulation; for inhibition at 100 µM: read-out: COX-1 Inhibition (% at 100 μM)
T2 construct: endogenous in cells; host or cells: heparinised human whole blood from donors, stimulated with the calcium ionophore A23187
T2 sequence (P23219 24-599): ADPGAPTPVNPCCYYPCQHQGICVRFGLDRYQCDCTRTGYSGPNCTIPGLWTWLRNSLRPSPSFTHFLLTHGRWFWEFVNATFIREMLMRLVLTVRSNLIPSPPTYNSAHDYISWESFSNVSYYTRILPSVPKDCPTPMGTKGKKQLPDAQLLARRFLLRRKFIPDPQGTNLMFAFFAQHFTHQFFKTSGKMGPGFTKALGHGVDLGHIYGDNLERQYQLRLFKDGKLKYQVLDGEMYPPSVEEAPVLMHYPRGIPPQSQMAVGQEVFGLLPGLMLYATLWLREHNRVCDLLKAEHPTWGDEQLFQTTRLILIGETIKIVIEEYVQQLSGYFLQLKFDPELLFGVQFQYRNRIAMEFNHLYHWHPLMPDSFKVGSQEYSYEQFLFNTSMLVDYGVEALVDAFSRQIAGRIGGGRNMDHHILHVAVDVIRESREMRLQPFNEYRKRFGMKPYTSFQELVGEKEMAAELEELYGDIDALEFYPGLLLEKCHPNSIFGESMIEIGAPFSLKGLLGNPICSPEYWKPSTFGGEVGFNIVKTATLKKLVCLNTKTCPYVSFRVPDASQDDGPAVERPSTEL
Procedure: as §1

SMILES	inhibition at 1 µM (COX-2; 1 μM) [%]	inhibition at 10 µM (COX-2; 10 μM) [%]	inhibition at 100 µM (COX-1) [%]	COX-2 Inhibition (% at 1 μM) (COX-2; 1 μM) [%]	COX-2 Inhibition (% at 10 μM) (COX-2; 10 μM) [%]	COX-1 Inhibition (% at 100 μM) (COX-1) [%]
CS(=O)(=O)c1ccc(-c2cc(COCCCO[N+](=O)[O-])nn2C2CCCCC2)cc1 [Example 16c, 1-(1-Cyclohexyl-3-((3-(nitrooxy)propoxy)methyl)pyrazol-5-yl)-4-(methylsulfonyl)benzene]	45	85	10			
CS(=O)(=O)c1ccc(-c2cc(COc3cccc(CO)c3)nn2C2CCCCC2)cc1 [Example 17b, 1-(1-Cyclohexyl-3-((3-(hydroxymethyl)phenoxy)methyl)pyrazol-5-yl)-4-(methylsulfonyl)benzene]	135	100	80			
CS(=O)(=O)c1ccc(-c2cc(COc3cccc(CO[N+](=O)[O-])c3)nn2C2CCCCC2)cc1 [Example 17d, 1-(1-Cyclohexyl-3-((3-((nitrooxy)methyl)phenoxy)methyl)pyrazol-5-yl)-4-(methylsulfonyl)benzene]	0	25	25			
CS(=O)(=O)c1ccc(-c2cc(COCCCO[N+](=O)[O-])nn2-c2ccc(F)cc2)cc1 [Example 18e, 1-(1-(4-Fluorophenyl)-3-((3-(nitrooxy)propoxy)methyl)pyrazol-5-yl)-4-(methylsulfonyl)benzene]	55	95	80			
CC(O)CCOCc1cc(-c2ccc(S(C)(=O)=O)cc2)n(-c2ccccc2)n1 (stereo not drawn) [Example 19b, 1-(3-((3-Hydroxybutoxy)methyl)-1-phenylpyrazol-5-yl)-4-(methylsulfonyl)benzene]	20	100	40			
CC(CCOCc1cc(-c2ccc(S(C)(=O)=O)cc2)n(-c2ccccc2)n1)O[N+](=O)[O-] (stereo not drawn) [Example 19c, 4-(Methylsulfonyl)-1-(3-((3-(nitrooxy)butoxy)methyl)-1-phenylpyrazol-5-yl)benzene]	20	30	35			
CS(=O)(=O)c1ccc(-c2cc(/C=C/CCO)nn2C2CCCCC2)cc1 [Example 21b]				10	25	10

Now from value to molecule, other results behind:

inhibition at 1 µM (COX-2; 1 μM) [%]	inhibition at 10 µM (COX-2; 10 μM) [%]	inhibition at 100 µM (COX-1) [%]	SMILES	COX-2 Inhibition (% at 1 μM) (COX-2; 1 μM) [%]	COX-2 Inhibition (% at 10 μM) (COX-2; 10 μM) [%]	COX-1 Inhibition (% at 100 μM) (COX-1) [%]
0	40	10	CS(=O)(=O)c1ccc(-c2cc(COCCO)nn2C2CCCCC2)cc1 [Example 15d, 1-(1-Cyclohexyl-3-((2-hydroxyethoxy)methyl)pyrazol-5-yl)-4-(methylsulfonyl)benzene]			
35	75	35	CS(=O)(=O)c1ccc(-c2cc(COCCO[N+](=O)[O-])nn2C2CCCCC2)cc1 [Example 15e, 1-(1-Cyclohexyl-3-((2-(nitrooxy)ethoxy)methyl)pyrazol-5-yl)-4-(methylsulfonyl)benzene]			
20	55	10	CS(=O)(=O)c1ccc(-c2cc(COCCCO)nn2C2CCCCC2)cc1 [Example 16b, 1-(1-Cyclohexyl-3-((3-hydroxypropoxy)methyl)pyrazol-5-yl)-4-(methylsulfonyl)benzene]			
45	90	40	CS(=O)(=O)c1ccc(-c2cc(COCCCO)nn2-c2ccc(F)cc2)cc1 [Example 18d, 1-(1-(4-Fluorophenyl)-3-((3-hydroxypropoxy)methyl)pyrazol-5-yl)-4-(methylsulfonyl)benzene]			
45	90	60	CS(=O)(=O)c1ccc(-c2cc(/C=C/CCO[N+](=O)[O-])nn2C2CCCCC2)cc1 [Example 21c, 1-(3-((1E)-4-(Nitrooxy)but-1-enyl)-1-cyclohexylpyrazol-5-yl)-4-(methylsulfonyl)benzene]			
25	80	40	CS(=O)(=O)c1ccc(-c2cc(C(=O)CCCCCO)nn2C2CCCCC2)cc1 [Example 22c, 1-(1-Cyclohexyl-5-(4-(methylsulfonyl)phenyl)-pyrazol-3-yl)-6-hydroxyhexan-1-one]			
